Reference: patent US8440623B2, “Polymer stabilized neuropeptides” (Nektar Therapeutics, priority 1999, dated 2013)

Tests used:
rat brain = assay: In situ rat brain perfusion (brain uptake); settings: radiolabeled compound
Procedure: The protocol for the rat brain perfusion experiments was approved by the Institutional Animal Care and Use Committee at the University of Arizona. The in situ perfusion, capillary depletion, brain extract and protein binding studies were carried out as previously reported (Williams et al., J. Neurochem., 66 (3), pp 1289-1299, 1996).
The protocol for the rat brain perfusion experiments was approved by the Institutional Animal Care and Use Committee at the University of Arizona. The in situ perfusion studies were carried out as previously reported (Williams et al., J. Neurochem., 66 (3), pp 1289-1299, 1996).

[1] = Enzymatic stability in brain tissue; type: in vitro ADME
Description: (§1) The major contribution is that PEGylation improved brain and blood enzymatic stability dramatically. […] After PEGylation, those half-lives increased to hours for endomorphin II.

[2] = Enzymatic stability in blood plasma; type: in vitro ADME
Description: as §1

male ICR mice = assay: Analgesia assay (radiant heat tail flick), mice; type: in vivo, mouse; settings: intravenous, FIG. 3
Procedure: Male ICR mice (20-25 g) or male Sprague-Dawley rats (250-300 g) (Harlan Sprague-Dawley Inc., Indianapolis, Ind.) were used for these experiments. Animals were housed four per cage in an animal care facility maintained at 22±0.5° C. with an alternating 12 hr light-dark cycle. Food and water were available ad libitum. Animals were used only once.
All drugs were dissolved in sterile saline and were prepared so that the proper dose would be delivered in 5 μl (i.c.v.), 100 μl (i.v.), 100 μl (s.c.) and 100 μl (i.m.) of the vehicle. All rodents were recorded for baseline latency before injection of the drug. A morphine control was used with the i.c.v. and i.v. injection procedures to compare the analgesic efficacies of test compounds. […]
The rodents were placed into restraint holders and their tails were properly placed under the radiant heat beam. The beam was turned on and the time until the animal flicked their tail from under the beam was recorded at each time point. […]
The raw data (recorded times) was converted to a percentage of the maximum possible effect (% M.P.E.) which was determined as 15 seconds. % M.P.E. was determined by the following equation: % M.P.E.=(Recorded time−Baseline)/(15−Baseline)×100
These percentages then allow the compound to be plotted according to % M.P.E. vs. Time. The curve can then be analyzed to determine the area under the curve (AUC).

Compound | in situ uptake RBr value (rat brain) | half-life [1] | half-life ([2]; blood plasma) | half-lives in either brain or blood (in words) [2] | time mark at which 50% M.P.E. is seen (male ICR mice)
Tyr-D-Pen-Gly-Phe-D-Pen [I^125 DPDPE] | 3.54±0.30 | – | – | – | –
NC(=O)[C@H](Cc1ccccc1)NC(=O)[C@H](Cc1ccccc1)NC(=O)[C@@H]1CCCN1C(=O)[C@@H](N)Cc1ccc(O)cc1 [endomorphin II, H-Tyr-Pro-Phe-Phe-NH2] | – | 13 min | 3.2 min | on the order of minutes | –
H-Tyr-Gly-Gly-Phe-Leu-Arg-Arg-Ile-Arg-Pro-Lys-NH2 (H-YGGFLRRIRPK-NH2) [dynorphin] | – | – | – | on the order of minutes | –
C[C@@H](NC(=O)[C@@H](N)Cc1ccc(O)cc1)C(=O)NCC(=O)N[C@@H](Cc1ccccc1)C(=O)NNC(=O)[C@H](Cc1ccccc1)NC(=O)CNC(=O)[C@@H](C)NC(=O)[C@@H](N)Cc1ccc(O)cc1 [native biphalin, (H-Tyr-D-Ala-Gly-Phe-NH—)2] | 7.26±0.11 | – | – | – | 90 min
